Measured values reported in US20210284638A1 (Saint Louis University, priority 2018, published 2021).
Counter-ions that a name gives are not always drawn.

Columns and labels:
[1] = molecular target: T1, Recombinant human integrin αVβ6 (Homo sapiens, UniProt P06756+P18564); assay: Solid Phase Receptor Assay (SPRA) for αVβ6 function; type: binding; details: plate-bound human LAP
T1 construct: purchased R&D Systems 3817-AV
Protocol: E. Solid Phase Receptor Assay (SPRA) for αVβ6 Function
Wells were washed 3 times with 150 μL TBS+, and then 150 μL of blocking buffer (TBS+ with 1% bovine serum albumin, Sigma A7906) was added. The plate was incubated for 1 hr at 37° C., and then washed 3× with TBS+ buffer. […] Compounds were diluted to 20 μM and then 1 μL was added to each well of the plate according to a standard template with each sample repeated in triplicate. After incubation for two hours at room temperature, the plate was washed 3× with 150 μL of TBS+ buffer. To each well, 50 μL of biotinylated anti-αV antibody (R&D Systems, BAF1219) at 0.5 μg/mL in TBS+/0.1% BSA were added and the plate was covered and incubated for 1 hr at room temperature. After washing the plate 3× with 150 μL of TBS+ buffer, 50 μL of streptavidin-conjugated horseradish peroxidase (R&D Systems, DY998) diluted in TBS+ blocking buffer were added to the wells and the plate incubated for 20 min at room temperature. The plate was washed 3× with TBS+ buffer followed by 50 μL of TMB substrate (Sigma T4444) added to each well in the dark and the plate incubated for 10 min at room temperature. 25 μL of 1.0 M phosphoric acid was added as a stop solution and the plates were read at 450 nm using a Spectramax plate reader.

[2] = molecular target: T2, Recombinant human integrin αVβ3 (Homo sapiens, UniProt P05106+P06756); assay: Solid Phase Receptor Assay for αVβ3 function; type: binding; details: plate-bound human vitronectin; read-out: αVβ3 SPRA IC50
T2 construct: purchased R&D Systems 3050-AV
Protocol: C. […] Wells were washed 3 times with 150 μL TBS+ and then 150 μL of blocking buffer (TBS+ with 1% bovine serum albumin, Sigma A7906) was added. The plate was incubated for 1 hr at 37° C. and then washed 3× with TBS+ buffer. […] Compounds were diluted to 20 μM and then 1 μL was added to each well of the plate according to a standard template with each sample repeated in triplicate. After incubation for two hours at room temperature, the plate was washed 3× with 150 μL of TBS+ buffer. To each well, 50 μL of biotinylated anti-αV antibody (R&D Systems, BAF1219) at 0.5 μg/mL in TBS+/0.1% BSA were added and the plate covered and incubated for 1 hr at room temperature. After washing the plate 3× with 150 μL of TBS+ buffer, 50 μL of streptavidin-conjugated horseradish peroxidase (R&D Systems, DY998) diluted in TBS+ blocking buffer were added to the wells and the plate incubated for 20 min at room temperature. The plate was washed 3× with TBS+ buffer followed by 50 μL of TMB substrate (Sigma, T4444) added to each well in the dark and the plate was incubated for 25 min at room temperature. 25 μL of 1.0 M phosphoric acid was added as a stop solution and the plates were read at 450 nm using a Spectramax plate reader.

T1 sequence (P06756 31-992 limits assumed): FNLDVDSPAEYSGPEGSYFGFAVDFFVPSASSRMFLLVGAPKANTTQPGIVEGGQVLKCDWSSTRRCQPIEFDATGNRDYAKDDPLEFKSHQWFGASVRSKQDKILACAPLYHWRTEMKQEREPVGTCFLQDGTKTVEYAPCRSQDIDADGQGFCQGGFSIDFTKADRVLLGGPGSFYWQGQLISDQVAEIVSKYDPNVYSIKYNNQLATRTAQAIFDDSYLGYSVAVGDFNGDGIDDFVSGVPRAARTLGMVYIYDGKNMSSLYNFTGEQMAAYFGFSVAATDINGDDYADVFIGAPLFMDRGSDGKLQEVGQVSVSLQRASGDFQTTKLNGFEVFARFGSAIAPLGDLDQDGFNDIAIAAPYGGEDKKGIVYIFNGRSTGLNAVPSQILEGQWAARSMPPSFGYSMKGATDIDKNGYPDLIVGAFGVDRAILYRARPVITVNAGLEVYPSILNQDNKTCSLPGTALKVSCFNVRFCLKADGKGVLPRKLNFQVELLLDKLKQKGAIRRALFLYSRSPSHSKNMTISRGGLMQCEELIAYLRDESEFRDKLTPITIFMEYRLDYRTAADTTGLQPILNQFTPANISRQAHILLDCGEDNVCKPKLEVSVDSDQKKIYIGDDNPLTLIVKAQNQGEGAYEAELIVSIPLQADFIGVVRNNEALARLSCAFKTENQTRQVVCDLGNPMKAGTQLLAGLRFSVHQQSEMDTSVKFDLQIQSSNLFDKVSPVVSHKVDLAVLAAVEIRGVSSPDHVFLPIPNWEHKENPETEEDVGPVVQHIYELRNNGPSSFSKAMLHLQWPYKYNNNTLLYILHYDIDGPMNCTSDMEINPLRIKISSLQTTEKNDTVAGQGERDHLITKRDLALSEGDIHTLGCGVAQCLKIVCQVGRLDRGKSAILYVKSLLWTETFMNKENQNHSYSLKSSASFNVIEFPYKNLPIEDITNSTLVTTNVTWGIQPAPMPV
T1 sequence (P18564 22-707 limits assumed): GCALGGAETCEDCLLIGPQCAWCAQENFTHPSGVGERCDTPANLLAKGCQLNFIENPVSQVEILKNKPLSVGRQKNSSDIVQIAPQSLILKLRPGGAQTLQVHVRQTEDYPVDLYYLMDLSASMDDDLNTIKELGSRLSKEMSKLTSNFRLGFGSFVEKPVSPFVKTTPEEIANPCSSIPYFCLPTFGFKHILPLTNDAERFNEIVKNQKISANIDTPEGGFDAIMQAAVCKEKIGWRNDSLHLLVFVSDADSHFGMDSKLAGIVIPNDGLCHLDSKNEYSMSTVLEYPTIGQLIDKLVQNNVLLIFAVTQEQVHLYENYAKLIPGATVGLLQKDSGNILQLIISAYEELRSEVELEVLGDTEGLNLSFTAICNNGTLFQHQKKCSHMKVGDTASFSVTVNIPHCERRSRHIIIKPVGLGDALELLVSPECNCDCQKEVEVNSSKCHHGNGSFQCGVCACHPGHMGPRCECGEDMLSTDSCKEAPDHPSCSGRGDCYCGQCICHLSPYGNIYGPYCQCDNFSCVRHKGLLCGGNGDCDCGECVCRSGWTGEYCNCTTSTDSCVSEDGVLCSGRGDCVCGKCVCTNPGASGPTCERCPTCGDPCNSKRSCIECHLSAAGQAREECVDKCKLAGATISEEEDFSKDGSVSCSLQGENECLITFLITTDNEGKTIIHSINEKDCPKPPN
T2 sequence (P06756 31-992 limits assumed): as the sequence (P06756 31-992 limits assumed) above
T2 sequence (P05106 27-718 limits assumed): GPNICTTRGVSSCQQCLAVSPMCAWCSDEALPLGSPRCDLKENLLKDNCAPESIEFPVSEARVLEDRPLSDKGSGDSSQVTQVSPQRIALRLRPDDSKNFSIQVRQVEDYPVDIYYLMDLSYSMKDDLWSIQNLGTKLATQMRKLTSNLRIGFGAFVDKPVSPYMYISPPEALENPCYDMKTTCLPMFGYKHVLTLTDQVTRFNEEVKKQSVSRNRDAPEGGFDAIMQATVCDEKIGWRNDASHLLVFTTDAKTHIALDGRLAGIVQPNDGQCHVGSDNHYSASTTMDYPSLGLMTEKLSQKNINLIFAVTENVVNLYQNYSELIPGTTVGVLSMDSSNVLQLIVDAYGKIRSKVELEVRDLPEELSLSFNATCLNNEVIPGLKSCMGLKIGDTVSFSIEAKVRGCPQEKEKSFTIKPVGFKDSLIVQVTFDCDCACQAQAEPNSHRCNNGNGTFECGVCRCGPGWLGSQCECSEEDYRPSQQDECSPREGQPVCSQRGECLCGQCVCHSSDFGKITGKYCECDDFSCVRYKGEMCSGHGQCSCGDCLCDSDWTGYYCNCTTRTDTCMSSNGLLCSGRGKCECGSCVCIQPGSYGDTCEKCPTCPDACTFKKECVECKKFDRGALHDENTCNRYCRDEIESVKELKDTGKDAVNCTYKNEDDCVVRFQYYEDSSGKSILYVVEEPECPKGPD

Row | SMILES | IC50 [1] [nM] | IC50 [2] [nM]
1 | COc1ccc(C(C)(C)O)cc1C(CC(=O)O)Cc1cc(OCCc2ccc3c(n2)NCCC3)n(C)n1 (stereo not shown) [Example 22, 3-(5-(2-hydroxypropan-2-yl)-2-methoxyphenyl)-4-(1-methyl-5-(2-(5,6,7,8-tetrahydro-1,8-naphthyridin-2-yl)ethoxy)-1H-pyrazol-3-yl)butanoic acid] | 160 | 5
2 | COc1ccc(C2COC2)cc1C(CC(=O)O)Cc1cc(OCCc2ccc3c(n2)NCCC3)n(C)n1 (stereo not shown) [Example 23, 3-[2-methoxy-5-(oxetan-3-yl)phenyl]-4-[1-methyl-5-[2-(5,6,7,8-tetrahydro-1,8-naphthyridin-2-yl)ethoxy]pyrazol-3-yl]butanoic acid] | 140 | 26
3 | COc1ccc(S(F)(F)(F)(F)F)cc1C(CC(=O)O)Cc1cc(OCCc2ccc3c(n2)NCCC3)n(C)n1 (stereo not shown) [Example 24, 3-[2-methoxy-5-(pentafluoro-sulfanyl)phenyl]-4-[1-methyl-5-[2-(5,6,7,8-tetrahydro-1,8-naphthyridin-2-yl)ethoxy]pyrazol-3-yl]butanoic acid] | 48 | 130
4 | COc1c(C(C)C)cc(C(CC(=O)O)Cc2cc(OCCc3ccc4c(n3)NCCC4)n(C)n2)cc1C(C)C (stereo not shown) [Example 25, 3-(3,5-diisopropyl-4-methoxy-phenyl)-4-[1-methyl-5-[2-(5,6,7,8-tetrahydro-1,8-naphthyridin-2-yl)ethoxy]pyrazol-3-yl]butanoic acid] | 160 | 37
5 | COc1c(C(C)C)cc(C(CC(=O)O)Cc2csc(CCCc3ccc4c(n3)NCCC4)n2)cc1C(C)C (stereo not shown) [Example 26, 3-(3,5-diisopropyl-4-methoxy-phenyl)-4-[2-[3-(5,6,7,8-tetrahydro-1,8-naphthyridin-2-yl)propyl]thiazol-4-yl]butanoic acid] | 330 | 530
6 | CC(C)(C)c1cc(C(CC(=O)O)Cc2csc(CCCc3ccc4c(n3)NCCC4)n2)cc(C(C)(C)C)c1 (stereo not shown) [Example 27, 3-(3,5-di-tert-butylphenyl)-4-(2-(3-(5,6,7,8-tetrahydro-1,8-naphthyridin-2-yl)propyl)thiazol-4-yl)butanoic acid] | 1000 | 2900
7 | COc1ccc(C(C)(C)C)cc1C(CC(=O)O)Cc1csc(CCCc2ccc3c(n2)NCCC3)n1 (stereo not shown) [Example 28, 3-(5-(tert-butyl)-2-methoxyphenyl)-4-(2-(3-(5,6,7,8-tetrahydro-1,8-naphthyridin-2-yl)propyl)thiazol-4-yl)butanoic acid] | 310 | 1500
8 | COc1c(C(C)(C)C)cc(C(CC(=O)O)Cc2csc(CCCc3ccc4c(n3)NCCC4)n2)cc1C(C)(C)C (stereo not shown) [Example 29, 3-(3,5-di-tert-butyl-4-methoxyphenyl)-4-(2-(3-(5,6,7,8-tetrahydro-1,8-naphthyridin-2-yl)propyl)thiazol-4-yl)butanoic acid] | 450 | 1600
9 | CC(C)(C)c1cc(C(CC(=O)O)Cc2csc(CCCc3ccc4c(n3)NCCC4)n2)cc(C2(C(F)F)CC2)c1 (stereo not shown) [Example 30, 3-[3-tert-butyl-5-[1-(difluoromethyl)cyclopropyl]phenyl]-4-[2-[3-(5,6,7,8-tetrahydro-1,8-naphthyridin-2-yl)propyl]thiazol-4-yl]butanoic acid] | 270 | 720
10 | CC(C)(C)c1cc(C(CC(=O)O)Cc2csc(CCCc3ccc4c(n3)NCCC4)n2)cc(C(C)(C)C(F)(F)F)c1 (stereo not shown) [Example 31, 3-[3-tert-butyl-5-(2,2,2-trifluoro-1,1-dimethyl-ethyl)phenyl]-4-[2-[3-(5,6,7,8-tetrahydro-1,8-naphthyridin-2-yl)propyl]thiazol-4-yl]butanoic acid] | 1700 | 2600
11 | COCC1(c2cc(C(CC(=O)O)Cc3csc(CCCc4ccc5c(n4)NCCC5)n3)cc(C(C)(C)C)c2)CCOCC1 (stereo not shown) [Example 32, 3-[3-tert-butyl-5-[4-(methoxymethyl)tetrahydropyran-4-yl]phenyl]-4-[2-[3-(5,6,7,8-tetrahydro-1,8-naphthyridin-2-yl)propyl]thiazol-4-yl]butanoic acid] | 130 | 600
12 | CC(C)(C)c1ccc(C#N)c(C(CC(=O)O)Cc2csc(CCCc3ccc4c(n3)NCCC4)n2)c1 (stereo not shown) [Example 33, 3-(5-tert-butyl-2-cyano-phenyl)-4-[2-[3-(5,6,7,8-tetrahydro-1,8-naphthyridin-2-yl)propyl]thiazol-4-yl]butanoic acid] | 150 | 38
13 | CC(C)(C)c1ccc(Br)c(C(CC(=O)O)Cc2csc(CCCc3ccc4c(n3)NCCC4)n2)c1 (stereo not shown) [Example 34] | 3400 | 2500
14 | COc1ccc(C(F)(F)F)cc1C(CC(=O)O)Cc1csc(CCCc2ccc3c(n2)NCCC3)n1 (stereo not shown) [Example 35, 3-[2-methoxy-5-(trifluoromethyl)phenyl]-4-[2-[3-(5,6,7,8-tetrahydro-1,8-naphthyridin-2-yl)propyl]thiazol-4-yl]butanoic acid] | 200 | 78
15 | COc1ccc(C2(C(F)F)CC2)cc1C(CC(=O)O)Cc1csc(CCCc2ccc3c(n2)NCCC3)n1 (stereo not shown) [Example 36, 3-(5-(1-(difluoromethyl)cyclopropyl)-2-methoxyphenyl)-4-(2-(3-(5,6,7,8-tetrahydro-1,8-naphthyridin-2-yl)propyl)thiazol-4-yl)butanoic acid] | 120 | 840
16 | COc1ccc(C2=CCOCC2)cc1C(CC(=O)O)Cc1csc(CCCc2ccc3c(n2)NCCC3)n1 (stereo not shown) [Example 37, 3-[5-(3,6-dihydro-2H-pyran-4-yl)-2-methoxy-phenyl]-4-[2-[3-(5,6,7,8-tetrahydro-1,8-naphthyridin-2-yl)propyl]thiazol-4-yl]butanoic acid] | 81 | 230
17 | COc1ccc(C2=CCOCC2)cc1[C@H](CC(=O)O)Cc1csc(CCCc2ccc3c(n2)NCCC3)n1 [Example 37A, (S)-3-(5-(3,6-dihydro-2H-pyran-4-yl)-2-methoxyphenyl)-4-(2-(3-(5,6,7,8-tetrahydro-1,8-naphthyridin-2-yl)propyl)thiazol-4-yl)butanoic acid trifluoroacetate] | 31 | 160
18 | COc1ccc(C2=CCOCC2)cc1[C@@H](CC(=O)O)Cc1csc(CCCc2ccc3c(n2)NCCC3)n1 [Example 37B, (R)-3-(5-(3,6-dihydro-2H-pyran-4-yl)-2-methoxyphenyl)-4-(2-(3-(5,6,7,8-tetrahydro-1,8-naphthyridin-2-yl)propyl)thiazol-4-yl)butanoic acid trifluoroacetate] | 3000 | 940
19 | Cc1cc(C)n(-c2cccc(C(CC(=O)O)Cc3csc(CCc4ccc5c(n4)NCCC5)n3)c2)n1 (stereo not shown) [Example 38, 3-(3-(3,5-dimethyl-1H-pyrazol-1-yl)phenyl)-4-(2-(2-(5,6,7,8-tetrahydro-1,8-naphthyridin-2-yl)ethyl)thiazol-4-yl)butanoic acid] | 240 | 9
20 | CC(C)(C)c1cc(C(CC(=O)O)Cc2cc(OCCc3ccc4c(n3)NCCC4)n(CC(F)(F)F)n2)cc(C(C)(C)C)c1 (stereo not shown) [Example 40, 3-(3,5-di-tert-butylphenyl)-4-(5-(2-(5,6,7,8-tetrahydro-1,8-naphthyridin-2-yl)ethoxy)-1-(2,2,2-trifluoroethyl)-1H-pyrazol-3-yl)butanoic acid trifluoroacetate] | 790 | 740
